Test results as given in publication PMC9032987, “Cytotoxic Alkylynols of the Sponge Cribrochalina vasculum: Structure, Synthetic Analogs and SAR Studies” (Marine Drugs, 2022).

Legend:
Type in all cases: cell-based, human
[1] = tested on: WI-38 diploid lung fibroblasts; assay: MTT cytotoxicity assay in diploid lung fibroblasts WI-38; settings: for IC50: MTT, 72 h post addition, confluent cells, estimated from cell viability curve
Description: (§1) Cytotoxicity structure-activity relationship analyses of compounds in NSCLC tumor cells and fibroblasts. Stock solutions (10 mg/mL) of the compounds to be tested were made in DMSO and further diluted with cell culture media prior to structure-activity relationship (SAR) screening as earlier described. To assess anti-tumor activity, the large cell lung carcinoma cell line NSCLC U-1810 (kind gift from Uppsala University) and diploid lung fibroblasts WI-38 [30] were used. U-1810 cells were propagated in RPMI-1640 medium (Sigma-Aldrich, St. Louis, […], USA) supplemented with FBS (10% HyClone) and L-glutamine (2 mmol/L, Invitrogen) while WI-38 fibroblasts were cultured in Eagle’s Minimum Essential Medium (Sigma-Aldrich) with 15% FBS and L-glutamine. For SAR assessment the cytotoxic assay 3-(4,5-dimethylthiazol-2-yl)-2,5 diphenyltetrazolium bromide (MTT) was applied. Profiling of U-1810 cells was carried out at 80% confluency (obtained by seeding 5000 cells/well in a 96-well plate for 24 h prior to treatment) and of WI-38 at 100% confluency (obtained by seeding 18,000 cells/well in a 96-well plate for 24 h prior to compound addition), the later to mimic the behavior of fibroblasts in the human body where they are non-dividing. For SAR evaluation, different concentrations of the compounds were added to fresh media while untreated cells were treated with DMSO corresponding to the amount applied when testing the highest concentration of the different compounds. The cytotoxicity of the compounds was assessed at 72 h post addition to cells by adding MTT solution (0.5 mg/mL, Sigma-Aldrich, 4 h at 37 °C) and dissolving the resulting formazan crystals in an SDS-containing solution (10% SDS and 0.01 mol/L HCl). Absorbance was quantified at 595 nm and the compound-induced cytotoxicity was calculated relative to that observed in DMSO-treated cells. The IC50 values were deduced from survival plots drawn in Graph Pad PRISM software vers.6 and for some of the compounds extrapolated as indicated in footnotes to Table 1.

[2] = tested on: NSCLC U-1810 cells; assay: MTT cytotoxicity assay in NSCLC U-1810 cells; settings: for IC50: MTT, 72 h post addition, estimated from cell viability curve; for Selectivity NSCLC cells (U-1810) vs. diploid fibroblasts (WI-38): calculated at IC50 (WI-38 IC50 / U-1810 IC50); for viability at 113 µM: U-1810, at 113 µM; for viability at 162 µM: U-1810, at 162 µM
Description: as §1

[3] = MTT cytotoxicity assay in diploid lung fibroblasts WI-38; settings: human, WI-38 diploid lung fibroblasts, 72 h, read-out: cell viability; for viability at 72 h, 188 µM: WI-38, at 188 µM; for viability at 72 h, 113 µM: WI-38, at 113 µM
Description: as §1

[4] = Homo sapiens, 72 h, read-out: cell viability

Compound	IC50 ([1]; Homo sapiens, WI-38, 72 h) [µM]	IC50 ([2]; Homo sapiens, U-1810, 72 h) [µM]	cytotoxic activity in NSCLC U-1810 cells (in words) [2]	Selectivity NSCLC cells (U-1810) vs. diploid fibroblasts (WI-38) [2]	other results
C#CC(O)/C=C/C=C/CCCCCCCCCCCCCCC (racemic) [rac-27, (4E,6E)-docosa-4,6-dien-1-yn-3-ol]	70	~2.4			cytotoxicity to WI-38 fibroblasts (in words) [1]: did not affect the viability
C#CC(=O)/C=C/CCCCCCCCC/C=C\CCCCCC [Compound 10, Docos-(4E,15Z)-dien-1-yn-3-one]	30	~80	not active	~0.4	
C#C[C@H](O)CCCCCCCCCCC(C)CCCCCC (stereo partly drawn) [Compound 7, (3R)-14-Methylicos-1-yn-3-ol]	> 163	3	equally active		tumor selective cytotoxicity NSCLC vs WI-38 (in words) [2]: clear tumor selective activity
C#CC(N)CCCCCCCCCCCCCCC (racemic) [rac-37, Octadec-1-yn-3-amine]	34	29		1.2	
C#CC(O)c1ccccc1CCCCCCCCCCCCCC (racemic) [rac-48, 1-(2-tetradecylphenyl)prop-2-yn-1-ol]		~50			
C#C[C@H](O)/C=C/CCCCCCCCCCCCC(C)C [Compound 1, (3R)-18-Methylnonadec-(4E)-en-1-yn-3-ol]	12	1	equally active	12	tumor selective cytotoxicity NSCLC vs WI-38 (in words) [2]: selectivity at lower doses
C#CC(O)/C=C/CCCCCCCCCCCCCCC (racemic) [rac-18, rac-Icos-(4E)-en-1-yn-3-ol]	8.3	1.2		6.9	
C#C[C@H](O)/C=C/CCCCCCCCCCCCCCCC [Compound 20, (3R)-Henicos-(4E)-en-1-yn-3-ol]	14	1.4	equally active	10	
C#CC(=O)/C=C/CCCCCCCCC(C)CCCCCC (stereo not drawn) [Compound 6, 14-Methylicos-(4E)-en-1-yn-3-one]	73	65	not active	1.1	
C#CC(O)CCCCCCCCC (racemic) [rac-31, Dodec-1-yn-3-ol]		15	much lower toxicity		
C#C[C@H](O)CCCCCCCCCCCCCCC [Compound R-32, (R)-octadec-1-yn-3-ol]	> 188	1.4			viability at 72 h, 188 µM [3]: ~60%
C#C[C@H](CCCCCCCCCCCCCCC)OC(=O)[C@](OC)(c1ccccc1)C(F)(F)F [S,R-34, (R)-((S)-octadec-1-yn-3-yl)-3,3,3-trifluoro-2-methoxy-2-phenylpropanoate]	> 113	> 113			viability at 72 h, 113 µM [3]: ~100%; viability at 113 µM [2, 4]: ~96%
C#C[C@H](O)/C=C/CCCCCCCCCCCCCC(C)C [Compound 19, (3R)-19-Methylicos-(4E)-en-1-yn-3-ol]	13	2	equally active	6.5	
C#CC(O)CCCCCCCCCCCCCCCCC (racemic) [rac-33, Icos-1-yn-3-ol]	> 170	2.8			viability at 72 h, 170 µM ([3]; WI-38, at 170 µM): ~100%
C#C[C@@H](O)CCCCCCCCCCCCCCC [Compound S-32, (S)-octadec-1-yn-3-ol]	> 188	140			viability at 72 h, 188 µM [3]: ~80%
C#C[C@@H](CCCCCCCCCCCCCCC)OC(=O)[C@](OC)(c1ccccc1)C(F)(F)F [R,R-34, (R)-((R)-octadec-1-yn-3-yl)-3,3,3-trifluoro-2-methoxy-2-phenylpropanoate]	> 113	> 113			viability at 72 h, 113 µM [3]: ~100%; viability at 113 µM [2, 4]: ~100%
CC#CC(O)CCCCCCCCCCCCCCCCC (racemic) [rac-42, Henicos-2-yn-4-ol]		> 162			viability at 162 µM [2, 4]: ~90%
C#CC(S)CCCCCCCCCCCCCCC (racemic) [rac-40, Octadec-1-yne-3-thiol]	> 177	> 177			viability at 72 h, 177 µM ([3]; WI-38, at 177 µM): ~100%; tumor selective cytotoxicity NSCLC vs WI-38 (in words) [2]: did not display any specific cytotoxicity; viability at 177 µM ([2]; Homo sapiens, U-1810, at 177 µM, 72 h, read-out: cell viability): ~100%
C#CC(CCCCCCCCCCCCCCC)SC(C)=O (racemic) [rac-39, S-Octadec-1-yn-3-yl ethanethioate]	> 154	60			viability at 72 h, 154 µM ([3]; WI-38, at 154 µM): ~85%; tumor selective cytotoxicity NSCLC vs WI-38 (in words) [2]: did not display any specific cytotoxicity
C#CC(O)c1ccccc1 (racemic) [rac-49, 1-Phenylprop-2-yn-1-ol]		> 379	did not display any anti-tumor effect		viability at 379 µM ([2]; Homo sapiens, U-1810, at 379 µM, 72 h, read-out: cell viability): ~80%
C#CC(C)(O)CCCCCCCCCCCCCCCC (racemic) [rac-41, 3-Methylnonadec-1-yn-3-ol]		> 162			viability at 162 µM [2, 4]: ~54%
C#CC(O)C=CCCCCCCCC1CC1CCCCCC (stereo not drawn) [Compound 8]	10	1	equally active	10	tumor selective cytotoxicity NSCLC vs WI-38 (in words) [2]: selectivity at lower doses
C#C[C@H](O)/C=C/CCCCCCCCCCCCCCC [scal-R-18, (R,E)-icos-4-en-1-yn-3-ol]	6.8	1		6.8	
C#CC(O)CCCCCCCCCCCCCCC (racemic) [rac-32, Octadec-1-yn-3-ol]	75	3		25	
C#C[C@H](O)/C=C/CCCCCCCCCCCCCCC [Compound R-18, (R,E)-icos-4-en-1-yn-3-ol]				3.8	IC50 [1]: 3.4 µM; IC50 [2]: 0.9 µM
C#CC(O)c1cccc(CCCCCCCCCCCCCC)c1 (racemic) [rac-45, 1-(3-tetradecylphenyl)prop-2-yn-1-ol]		~152			viability at 76 µM ([2]; Homo sapiens, U-1810, at 76 µM, one experiment, read-out: cell viability): ~70%
C#C[C@@H](O)/C=C/CCCCCCCCCCCCCCC [scal-S-18, (S)-icos-(4E)-en-1-yn-3-ol]	8.5	1		8.5	
C#C[C@H](O)/C=C/CCCCCCCCC/C=C\CCCCC(C)C [Compound 22, (3R)-21-Methyldocos-(4E,15Z)-dien-1-yn-3-ol]	13	1.2	equally active	10.8	
